Test results reported in patent US4740501A (priority 1985, dated 1988).

How the values were obtained:
[1] = tested on: MJY-alpha mammary tumor cell layers; experiment: Tumor cell survival (trypan blue), continuous exposure; type: cell-based, Mouse; details: for Percent Tumor Cell Survival / % tumor cell survival / reduction of tumor cell survival: MJY-alpha; for Percent Tumor Cell Survival: treated 24 hr; for reduction of tumor cell survival: 10 microgram/ml
L1210 leukemia = experiment: cells; type: cell-based, mice
MJY-alpha monolayers = experiment: Incorporation of radiolabeled precursors; type: cell-based
Protocol: The metabolism of treated MJY-alpha mammary tumor cell cultures were screened by monitoring the uptake and incorporation of 3H-uridine, 3H-thymidine, and 35S-methionine. Cultures were treated as described and given radiolabeled precursors in treatment medium at 0-24 for 24 to 48 hours during the treatment periods.
Levels of radioactivity incorporated into the cells were determined following harvesting of the cells on glass filters using a Mash II cell harvester. Each sample was examined in quadruplicate.
In addition to determining cellular viability by trypan blue exclusion, the levels of metabolic activity of PTT.119-treated cells were compared to solvent-treated and untreated controls. Confluent MJY-alpha monolayers were again processed as previously described and […], […], ^3 H-thymidine, and ^35 S-methionine incorporation quantitated during the 24 and 48 hour treatment periods. Following 24 hour tripeptide treatment, the only parameter that was substantially depressed compared to control cultures was the incorporation of ^35 S-radioactivity into cells treated with 15 uM PTT.119 (Table 10).

[2] = tested on: B-type mouse mammary tumor virus particles in MJY-alpha cells; experiment: Electron microscopy of thin sections; type: cell-based; details: 25 ug/ml for 2 hours
Protocol: Thin sections MJY-alpha mammary tumor cells were prepared according to standard techniques for electronmicroscopy. The magnification was scaled where the bar was equal to one um. […] The tumor virus particles are shown in the insert and also throughout the lower two-thirds of the photograph as rope-like sections. […] It should be noted that numerous microvilli are present with budding particles also in evidence. […] After that treatment period, the layer of cells was washed and then reincubated for one (1) day prior to further processing for electronmicroscopy. Although there are some microvilli with budding particles present, the number of such particles and buds is reduced. […] The layer was then similarily washed and reincubated for a two (2) days prior to further processing for electronmicroscopy.

## CCOC(=O)[C@H](CCSC)NC(=O)[C@H](Cc1cccc(N(CCCl)CCCl)c1)NC(=O)[C@@H](N)Cc1ccc(F)cc1.Cl [PTT.119, 3-(p-fluorophenyl)-L-alanyl-3-[m-bis(2-chloroethyl)aminophenyl]-L-alanyl-L-methionine ethyl ester hydrochloride]
[1]; 1 ug/ml
  Percent Tumor Cell Survival: 54%
[1]; 5 ug/ml, 1 hr
  % tumor cell survival: 100%
[1]; 5 ug/ml, 4 hr
  % tumor cell survival: 100%
[1]; 5 ug/ml, 8 hr
  % tumor cell survival: 100%
[1]; 5 ug/ml, 24 hr
  % tumor cell survival: 53%
[1]; 5 ug/ml
  Percent Tumor Cell Survival: 41%
[1]; 10 ug/ml, 1 hr
  % tumor cell survival: 100%
[1]; 10 ug/ml, 4 hr
  % tumor cell survival: 100%
[1]; 10 ug/ml, 8 hr
  % tumor cell survival: 100%
[1]; 10 ug/ml, 24 hr
  % tumor cell survival: 53%
[1]; 10 ug/ml
  Percent Tumor Cell Survival: 36%
[1]; 25 ug/ml, 1 hr
  % tumor cell survival: 100%
[1]; 25 ug/ml, 4 hr
  % tumor cell survival: 100%
[1]; 25 ug/ml, 8 hr
  % tumor cell survival: 98%
[1]; 25 ug/ml, 24 hr
  % tumor cell survival: 25%
[1]; 25 ug/ml
  Percent Tumor Cell Survival: 27%
[1]; 50 ug/ml, 1 hr
  % tumor cell survival: 98%
[1]; 50 ug/ml, 4 hr
  % tumor cell survival: 87%
[1]; 50 ug/ml, 8 hr
  % tumor cell survival: 62%
[1]; 50 ug/ml, 24 hr
  % tumor cell survival: 19%
[1]; 50 ug/ml
  Percent Tumor Cell Survival: 20%
[1]; another 24 hours
  reduction of tumor cell survival: 25%
[1]; zero to 24 hours
  reduction of tumor cell survival: 8%
[1]; continuous 24 hr exposure, all concentrations tested (0.1 to 50 ug/ml)
  decrease in mammary tumor cell survival: 46-80%
L1210 leukemia
  T.C.D.100: 37.5
  elimination of viable population: completely eliminated the viable population
  surviving fraction at end of examination period: 15%
L1210 leukemia; 3.75 µM
  percentage of viable cells: 40-50%
L1210 leukemia; Mus musculus, L1210, 24 h, read-out: T.C.D.50
  IC50: 9 µM
MJY-alpha monolayers; 1.5 uM, 24 hours, 3H-thy
  Relative level of incorporation of radiolabels (%): 91.2%
MJY-alpha monolayers; 1.5 uM, 24 hours, 3H-ur
  Relative level of incorporation of radiolabels (%): 90.9%
MJY-alpha monolayers; 1.5 uM, 24 hours, 35S-met
  Relative level of incorporation of radiolabels (%): 103.3%
MJY-alpha monolayers; 1.5 uM, 48 hours, 3H-thy
  Relative level of incorporation of radiolabels (%): 118.1%
MJY-alpha monolayers; 1.5 uM, 48 hours, 3H-ur
  Relative level of incorporation of radiolabels (%): 103.4%
MJY-alpha monolayers; 1.5 uM, 48 hours, 35S-met
  Relative level of incorporation of radiolabels (%): 96.1%
MJY-alpha monolayers; 7.5 uM, 24 hours, 3H-thy
  Relative level of incorporation of radiolabels (%): 99.0%
MJY-alpha monolayers; 7.5 uM, 24 hours, 3H-ur
  Relative level of incorporation of radiolabels (%): 100.6%
MJY-alpha monolayers; 7.5 uM, 24 hours, 35S-met
  Relative level of incorporation of radiolabels (%): 97.2%
MJY-alpha monolayers; 7.5 uM, 48 hours, 3H-thy
  Relative level of incorporation of radiolabels (%): 83.1%
MJY-alpha monolayers; 7.5 uM, 48 hours, 3H-ur
  Relative level of incorporation of radiolabels (%): 108.6%
MJY-alpha monolayers; 7.5 uM, 48 hours, 35S-met
  Relative level of incorporation of radiolabels (%): 89.9%
MJY-alpha monolayers; 7.5 uM, second day of treatment
  depression of 3H-thymidine incorporation: 17%
MJY-alpha monolayers; 15.0 uM, 24 hours, 3H-thy
  Relative level of incorporation of radiolabels (%): 103.6%
MJY-alpha monolayers; 15.0 uM, 24 hours, 3H-ur
  Relative level of incorporation of radiolabels (%): 100.1%
MJY-alpha monolayers; 15.0 uM, 24 hours, 35S-met
  Relative level of incorporation of radiolabels (%): 82.7%
MJY-alpha monolayers; 15.0 uM, 48 hours, 3H-thy
  Relative level of incorporation of radiolabels (%): 82.9%
MJY-alpha monolayers; 15.0 uM, 48 hours, 3H-ur
  Relative level of incorporation of radiolabels (%): 80.5%
MJY-alpha monolayers; 15.0 uM, 48 hours, 35S-met
  Relative level of incorporation of radiolabels (%): 80.4%
MJY-alpha monolayers; 15 uM, second day of treatment
  reductions in levels of cell-associated radioactivity, all three precursors: 20%
[2]; reincubated 1 day
  number of microvilli budding particles and buds: reduced
[2]; reincubated 2 days
  number of microvilli: reduced even farther
